In patent US7393526B2, “Systemic gene delivery vehicles for the treatment of tumors” (Children's Medical Center Corporation, priority 2000, dated 2008):

Legend:
[1] = tested on: CNS-1 glioblastoma; assay: Intracranial CNS-1 tumor co-transplanted with CD-NSCs, i.p. 5-FC: tumor mass; format: in vivo, adult nude mice; conditions: tumor alone, 5-FC 900 mg/kg i.p. for 10 days
From the text: CNS-1 glioblastoma cells alone, or CNS-1 cells co-transplanted with human CS-NSCs were implanted into the frontal lobe of adult nude mice. Two days later, treated animals began to receive daily intraperitoneal injections of 5-FC which continued for ten days. […] Note that there was about an 80% reduction in tumor mass in 5-FC-treated animals transplanted with tumor and CD-NSCs (FIG. 3D). […] FIGS. 3B, 3C and 3D are “camera lucida” sections of tumor areas on representative cryostat tissue sections, stained with X-gal and counterstained with neutral red.
On Day 0, adult nude mice received stereotactically guided injections into the right frontal lobe of CNS-1 glioblastoma alone (7×10^4 in 2 μl PBS), or CNS-1 cells mixed with CD-NSCs (7×10^4 CNS-1 and 3.5×10^4 NSCs in 2 μl PBS). Two days later treated animals received 10 intraperitoneal injections 900 mg/kg of 5-FC over a period of 10 days. Control animals received no 5-FC. Animals were sacrificed on day 13.

[2] = tested on: CNS-1 glioma cells; assay: Co-culture of CD-NSCs with glioma cells plus 5-FC: tumor cell count per high-power field; format: cell-based; conditions: tumor cell-only plates, no CD-NSCs, 5-FC 500 μg/ml
From the text: FIGS. 2A-2C summarize the significant antitumor effect of CD-expressing NSCs in vitro. CNS-1 glioblastoma cells were co-cultured with murine CD-NSCs (FIGS. 2A and 2B) or human CD-NSCs. Representative low power fields are shown after fixation and X-gal staining (CD-NSCs dark blue, tumor cells pale) three days after plating with or without 5-FC. […] In this treatment regime, the NSCs were still dividing and thus also subject to elimination by 5-FU and its toxic metabolites. […] Note also, that the tumor-killing effect was virtually identical whether 50,000 or 100,000 CD-NSCs were initially plated with 200,000 tumor cells.
This experiment was performed to determine if modified CD-NSCs could effectively deliver therapy to tumor cells and produce a profound antitumor response. 200,000 CNS-1 glioma cells were plated into 10 cm Petri dishes. The following day (Day 1) media were replaced, and 50,000 or 100,000 CD-NSCs were added. On Day 2, media were replaced and 5-FC added (500 μg/ml). Control dishes included tumor-NSC co-cultures with no 5-FC treatment and tumor cell-only dishes with 5-FC treatment. Three days later, all plates were rinsed well with 1× PBS and fixed with 4% paraformaldehyde for 10 min at room temperature. […] Under high power, the numbers of tumor cells per field were counted. […]

Nc1nc(=O)[nH]cc1F [5-FC, 5-fluorocytosine]
effect on tumor mass in the absence of CD-NSCs [1]: no effect on tumor mass | killing of tumor cells, tumor alone [2]: not significantly killed
